Assay results from patent EP0441876B1, “NON-BIOA[…]” (COULSTON INTERNATIONAL CORPORATION, priority 1988, dated 1990).

Assays:
Aedes aegypti = assay: Filter paper test for insecticidal activity against mosquitoes (Table 3); format: in vivo; conditions: for 100 % kill: time after which 100% of the mosquitoes were killed
Description: The experimental design of the test for activity against mosquitoes is as follows.
[…] The filter paper was then placed in a petri dish and 10-20 mosquitoes (Aedes aegypti) added. The effect of the chemical on the mosquitoes (flying activity, mortality) was observed and recorded for up to 72 hours. Generally the experiments were in triplicate, the parent cyclodiene and its dechlorinated derivative were tested and compared to the control; the filter paper of the control was treated with acetone only. A total of 9 pairs of chemicals (parent cyclodiene and dechlorinated derivative) and CIC-134 were tested according to the procedure above.

[1] = Bioaccumulation tests in rats; format: in vivo, Sprague Dawley and Fisher Rats; conditions: female rats, oral gavage on five consecutive days, sacrificed after 14 days, tissue analysis by GC-ECD with regard to total dose
Description: (§1) • I. Insecticide Testing Insects: Mosquitoes Species: Aedes aegypti, Anopheles quadramaculatus The mosquitoes were bred under controlled conditions (humidity, temperature and nutrition) at White Sands Research center. Test room temperature: approximately 70 F (average) Test room humidity: between 50% and 70% (average) Procedure: The test compounds were dissolved in HPLC grade acetone at the appropriate concentrations. One ml of the solution was applied with a disposable 1 ml syringe on filter paper (Whatman 541, 9.0 cm diameter). After evaporatin of the acetone, the filter paper was placed in a Petri dish (diameter also about 9.0 cm) with alid. […] The mosquitoes (not less than 5 or more than 20) were transferred in the dish through a hole in the lid. The lid was stopped up with a cotton ball wrapped in filter paper and soaked in sugar water. Two dishes with control insects - the filter paper was treated with 1 ml pure acetone - were observed. Readings were taken 3 to 4 times during the first hour, thereafter every hour. […] "Down" (D) = mosquitoes are disabled to fly, lay on their back or side. "Dead" = mosquitoes are completely moveless (e.g. no movement of body, legs or wints). these criteria can be considered as very strict. • II. Bioaccumulation Tests in Rats Species: Sprague Dawley and Fisher Rats Sex: Female Age/Weight: Young rats (average weight between 130 and 180 grams) Procedure: The animals were housed in stainless steel metabolism cages in a temperature controlled animal room. They were quarantined for at least 6 days before being placed on the study. Three rats were taken for each test compound (see appendix for dose levels). Each animal was dosed on five consecutive days by oral gavage. The test compound was dissolved or suspended in 0.5% carboxy methyl cellulose solution or corn oil (Mazola). After 14 days the rats were sacrificed by CO2. Samples of fat (abdominal) liver, kidneys, brain and muscle (leg) were removed and extracted for analysis. The fat of each rat was analyzed separately with regard to the individual total dose. The other organs of all three rats were combined and analyzed with regard to the total dose being applied to all three rats. The analysis was done by gas chromatography under ECD (electron capture detector) detection.

[2] = test system: Mosquitoes: Aedes aegypti, Anopheles quadramaculatus; assay: Insecticide testing on filter paper: knock-down and killing effect (Table 5); format: in vivo; conditions: for Lowest Concentration With Killing Effect / Lowest Concentration for Knockdown: concentration of acetone solution, 1 ml on filter paper
Description: as §1

[3] = test system: Tenebrio molitor (Greater Meal Worm); assay: Contact test at 1% concentration; format: in vivo
Maize Weevil = assay: Contact test at 1% concentration; format: in vivo
[4] = test system: Mosca domestica (House fly); assay: Contact test at 1% concentration; format: in vivo
[5] = test system: Blatella germanica (German cockroach); assay: Contact test at 1% concentration; format: in vivo
[6] = test system: Cimex lectularius (Bed bugs); assay: Contact test at 1% concentration; format: in vivo
[7] = test system: Ctenocephalides felis (Cat fleas); assay: Contact test at 1% concentration; format: in vivo
[8] = test system: Sitophilus Oryza (Rice Weevil); assay: Contact test at 1% concentration; format: in vivo
Pediculus humanus (Lice) = assay: Contact test at 1% concentration; format: in vivo
[9] = test system: Acheta domestica (Crickets); assay: Contact test at 1% concentration; format: in vivo
Grainery Weevil = assay: Contact test at 1% concentration; format: in vivo
[10] = 1% solution in acetone, 1 ml on filter paper, time after which 100% of the mosquitoes were affected (dead, lying down, wobbly, erratic)
[11] = 1% solution in acetone, 1 ml on filter paper

## 1,2,3,4,5-endo,6-endo,7-syn-heptachoronorborn-2-ene [CIC-143]
Aedes aegypti; [10]
  100% effect: 2 h
Aedes aegypti; [11]
  100 % kill: 23 h

## 1,2-endo,3-endo,4,7-anti-pentachlronorbornane [CIC-148]
[1]
  Bioaccumulation in Rats: ~1.30% (estimate value)
Aedes aegypti; [10]
  100% effect: 0.08 h
Aedes aegypti; [11]
  100 % kill: 6 h
[2]; 0.015%, after 5 hours
  dead: 60%
[2]; 0.06%, time not given
  down: 80%
[2]
  Lowest Concentration With Killing Effect: 0.015%
  Lowest Concentration for Knockdown: 0.06%

## 1,2-endo,3-endo,4,7-syn-pentachloronorbornane [CIC-144]
[1]
  Bioaccumulation in Rats: 0.01%
Aedes aegypti; [10]
  100% effect: 0.08 h
Aedes aegypti; [11]
  100 % kill: 23 h
[2]; 0.06%, after 22 hours
  dead: 79%
[2]; 0.06%, time not given
  down: 55%
[2]
  Lowest Concentration With Killing Effect: 0.06%
  Lowest Concentration for Knockdown: 0.06%

## 1,4,7,7-Tetrachloro-bicyclo [2.2.1]-heptane epoxide [CIC-150]
Aedes aegypti; [10]
  100% effect: 4 h
Aedes aegypti; [11]
  100 % kill: 23 h
[2]; 0.5%, after 7 hours
  dead: 27%
[2]
  Lowest Concentration With Killing Effect: 0.5%

## 1,4,7,7-Tetrachloro-bicyclo- [2.2.1]-heptane-poxide (less) [CIC-149]
Aedes aegypti; [10]
  100% effect: 0.33 h
Aedes aegypti; [11]
  100 % kill: 9 h
[2]; 0.063%, after 6 hours
  dead: 67%
[2]; 0.5%, after 10 minutes
  down: 36%
[2]
  Lowest Concentration With Killing Effect: 0.063%
  Lowest Concentration for Knockdown: 0.5%
[2]; in vivo
  Knock-down, remark in words: Not very fast knock-down

## Cl[C@@H]1C[C@]2(Cl)CC[C@@]1(Cl)C2(Cl)Cl [CIC-141, 1,2-endo,4,7,7-pentachloronorbornane]
Aedes aegypti; [10]
  100% effect: 0.25 h
Aedes aegypti; [11]
  100 % kill: 10 h
[2]; 0.5%, 5 minutes
  down: 38%
[2]
  Lowest Concentration With Killing Effect: 0.125%
  Lowest Concentration for Knockdown: 0.5%

## ClC12C=CC(Cl)(CC1)C2(Cl)Cl [CIC-142, 1,4,7,7-tetrachloronorbon-2-ene]
[3]
  insecticidal effect in contact test: effective insecticides
Maize Weevil
  insecticidal effect in contact test: effective insecticides
[1]
  Bioaccumulation in Rats: 1.24%
[4]
  insecticidal effect in contact test: effective insecticides
[5]
  insecticidal effect in contact test: effective insecticides
[6]
  insecticidal effect in contact test: effective insecticides
[7]
  insecticidal effect in contact test: effective insecticides
[8]
  insecticidal effect in contact test: effective insecticides
Pediculus humanus (Lice)
  insecticidal effect in contact test: effective insecticides
Aedes aegypti; [10]
  100% effect: 0.25 h
Aedes aegypti; [11]
  100 % kill: 3 h
[2]; 0.75%, after 4 minutes
  down: 37%
[2]
  Lowest Concentration With Killing Effect: 0.3%
  Lowest Concentration for Knockdown: 0.75%
[9]
  insecticidal effect in contact test: only mildly effective
Grainery Weevil
  insecticidal effect in contact test: no effect

## Cl[C@@H]1[C@H](Cl)[C@]2(Cl)CC[C@@]1(Cl)C2 [CIC-145, 1,2-endo,3-endo,4-tetrachloronorbornane]
[3]
  insecticidal effect in contact test: effective insecticides
Maize Weevil
  insecticidal effect in contact test: effective insecticides
[1]
  Bioaccumulation in Rats: >> 0.01%
[4]
  insecticidal effect in contact test: effective insecticides
[5]
  insecticidal effect in contact test: effective insecticides
[6]
  insecticidal effect in contact test: effective insecticides
[7]
  insecticidal effect in contact test: effective insecticides
[8]
  insecticidal effect in contact test: effective insecticides
Pediculus humanus (Lice)
  insecticidal effect in contact test: effective insecticides
Aedes aegypti; [10]
  100% effect: 0.08 h
Aedes aegypti; [11]
  100 % kill: 3 h
[2]; 0.04%, after 5 hours, read-out: dead
  mortality at 0.04 %: 62%
[2]; 0.08%, after 5 minutes
  down: 63%
[2]
  Lowest Concentration With Killing Effect: 0.04%
  Lowest Concentration for Knockdown: 0.08%
[9]
  insecticidal effect in contact test: effective insecticides
Grainery Weevil
  insecticidal effect in contact test: effective insecticides

## Cl[C@H]1[C@H](Cl)[C@@]2(Cl)CC[C@]1(Cl)C2(Cl)Cl [CIC-146, 1,2-exo,3-endo,4,7,7-hexachloronorbornane]
Aedes aegypti; [10]
  100% effect: 3 h
Aedes aegypti; [11]
  100 % kill: 24 h
[2]
  Lowest Concentration With Killing Effect: > 1%

## ClC1=CC2(Cl)CCC1(Cl)C2(Cl)Cl (stereo not shown) [CIC-147, 1,2,4,7,7-pentachloronorborn-2-ene]
[1]
  Bioaccumulation in Rats: 1.04%
Aedes aegypti; [10]
  100% effect: 0.08 h
Aedes aegypti; [11]
  100 % kill: 9 h
[2]; 0.125%, 10 minutes
  down: 63%
[2]; 1.5 h, read-out: dead
  mortality at 0.125 %: 50%
[2]
  Lowest Concentration With Killing Effect: 0.125%
  Lowest Concentration for Knockdown: 0.125%

## CC1CC2(Cl)CCC1(Cl)C2(Cl)Cl (stereo not shown) [CIC-151, 1,4,7,7-tetrachloro-2-methyl-norbornane]
[1]
  Bioaccumulation in Rats: 0.01%
Aedes aegypti; 0.5% solution in acetone on filter paper, time after which 100% of the mosquitoes were affected
  100% effect: 0.16 h
Aedes aegypti; 0.5% solution in acetone on filter paper
  100 % kill: 12 h
[2]; 0.5%, time not given
  down: 73%
[2]
  Lowest Concentration With Killing Effect: 0.50%
  Lowest Concentration for Knockdown: 0.5%
[2]; read-out: dead
  mortality at 0.5 %: 73%
